In article PMC10363080, “Modulatory Effect of Pyrus pyrifolia Fruit and its Phenolics on Key Enzymes against Metabolic Syndrome: Bioassay-Guided Approach, HPLC Analysis, and In Silico Study” (Plant Foods for Human Nutrition (Dordrecht, Netherlands), 2023):

How the values were obtained:
[1] = target: T1, porcine pancreatic lipase (Sus scrofa, UniProt P00591); assay: Pancreatic lipase inhibitory activity; assay type: biochemical; details: isolated compounds, Table S7; read-out: Inhibition (IC50) Lipase
T1 construct: purchased Abnova
T1 sequence (P00591 1-450): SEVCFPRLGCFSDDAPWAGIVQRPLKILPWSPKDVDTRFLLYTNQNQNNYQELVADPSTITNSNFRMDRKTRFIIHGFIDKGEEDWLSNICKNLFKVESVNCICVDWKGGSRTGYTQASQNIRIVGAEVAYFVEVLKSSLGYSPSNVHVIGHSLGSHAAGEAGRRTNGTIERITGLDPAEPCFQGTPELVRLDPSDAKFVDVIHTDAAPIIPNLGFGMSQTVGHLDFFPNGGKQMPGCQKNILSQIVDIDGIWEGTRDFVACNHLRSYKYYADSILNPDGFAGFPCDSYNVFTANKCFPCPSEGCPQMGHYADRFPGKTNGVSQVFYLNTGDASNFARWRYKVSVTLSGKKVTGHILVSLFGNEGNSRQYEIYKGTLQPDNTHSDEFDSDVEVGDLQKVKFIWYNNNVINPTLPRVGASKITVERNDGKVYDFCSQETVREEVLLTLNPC
Description: (§1) Phenolic acids and flavonoids used in HPLC analysis as well as all other reagents for biological investigations were obtained from Sigma Chemical Company […]
(§2) Inhibitory activity against key enzymes related to metabolic syndrome (MS) All assays were performed in 96-well plates. Stock solutions of the extract (100 mg/mL), fractions (100 mg/mL), and isolated compounds (1000 µM) were prepared. Tested samples that exceeded […]
(§3) inhibitory concentration (IC50). The percentage of enzyme inhibition was calculated according to […]
(§4) % Inhibition = (A−B) − (C−D) x 100 […]
Pancreatic lipase inhibitory activity
The pancreatic lipase inhibitory activity was assessed using p-nitrophenyl dodecanoate (p-NPD) as substrate and porcine pancreatic lipase (Abnova, Taipei, Taiwan) which was described […]
previously. […] The tested samples were diluted in DMSO were incubated with 10 g L−1 PL (diluted in 0.05 mol L−1 Tris-HCl buffer pH 8.0, containing […]
in 0.5% TritonX 100) (m v−1) was added to initiate the reaction. The absorbances were measured

pancreatic α-amylase = target: T2, pancreatic α-amylase (Sus scrofa, UniProt P00690); assay: α-Amylase inhibitory activity (starch substrate); assay type: biochemical, porcine; details: isolated compounds, Table S7; read-out: Inhibition (IC50) α-Amylase
T2 construct: pancreatic α-amylase (ex -porcine pancreas, EC 3.2.1.1, Sigma); purchased Sigma; host or cells: porcine pancreas
T2 sequence (P00690 16-511): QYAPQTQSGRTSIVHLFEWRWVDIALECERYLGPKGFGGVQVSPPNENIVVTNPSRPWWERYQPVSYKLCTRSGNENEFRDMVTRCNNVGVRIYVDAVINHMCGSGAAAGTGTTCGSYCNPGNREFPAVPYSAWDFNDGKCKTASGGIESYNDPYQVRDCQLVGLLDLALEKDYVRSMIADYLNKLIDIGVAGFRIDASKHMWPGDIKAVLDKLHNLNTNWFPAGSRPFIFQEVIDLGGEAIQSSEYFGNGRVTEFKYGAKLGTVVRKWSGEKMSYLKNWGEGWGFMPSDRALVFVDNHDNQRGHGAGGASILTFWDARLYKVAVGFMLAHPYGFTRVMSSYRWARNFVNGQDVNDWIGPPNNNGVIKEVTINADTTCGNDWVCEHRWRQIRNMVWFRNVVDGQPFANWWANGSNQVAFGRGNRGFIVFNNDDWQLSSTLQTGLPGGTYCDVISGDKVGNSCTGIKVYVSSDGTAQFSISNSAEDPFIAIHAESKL
Description: as §1, §2, §3, §4
α-Amylase inhibitory activity
α-Amylase inhibition assays were performed according to a previously described method. The tested samples we re incubated with pancreatic α-amylase (ex -porcine pancreas, EC 3.2.1.1, Sigma) followed by the addition of starch and iodine -potassium iodide solution for colo r development.
Starch [50 μL, 1% phosphate-buffered saline (PBS)] was mixed as substrate with 13 U mL−1 pancreatic α-amylase prepared in PBS, and 50 μL of test solution. A blank was performed using PBS. To initiate the reaction, the enzyme was added to the assay solution after being pre-incubated separately at 37 °C in a water bath for 10 min. Dinitrosalicylic acid reagent (1 mL) was added and […]
heated at 85 °C for 15 min. Then, it was cooled to room temperature and distilled water (1 mL) […]
was added. […] The absorbance was recorded at 540 nm.
Pancreatic lipase inhibitory activity […]

[2] = Oxygen radical absorbance capacity (ORAC) assay; details: for ORAC antioxidant activity: Trolox equivalent per gram of sample, mean ± SD, n=3; for ORAC AA (%) antioxidant activity percentage: compared to ascorbic acid (=100)
Description: all of analytical grade. An electrothermal 9100 (UK) was used for the determination of melting points (uncorrected). A Jenway model 6800 spectrophotometer was utilized for recording UV spectra. A Tecan, microplate reader, ((Infinite F50, Switzerland)) was used to measure the absorbances. A Bruker NMR system was used for 1H-NMR (400 MHz) and 13C-NMR (100 MHz).
The NMR spectra were determined in CD3OH and DMSO-d6. Chemical shifts are given in δ (ppm) relative to the internal standard TMS. Phenolic acids and flavonoids used in HPLC analysis as well as all other reagents for biological investigations were obtained from Sigma Chemical Company […]
Determination of the antioxidant activity
2,2`-Azino-bis(3-ethylbenzothiazoline-6-sulfonic acid) (ABTS), ferric reducing antioxidant power (FRAP), and oxygen radical absorbance capacity (ORAC) assays were performed according to the previously published procedures. Ascorbic acid was used as a reference antioxidant […]
drug. […]

Compound	IC50 [1]	IC50 (pancreatic α-amylase)	ORAC antioxidant activity [2]	ORAC antioxidant activity ([2]; listed as Cinnamic acid (P6))	ORAC AA (%) antioxidant activity percentage [2]
O=C(/C=C/c1ccc(O)c(O)c1)O[C@@H]1C[C@](O)(C(=O)O)C[C@@H](O)[C@H]1O [P4, chlorogenic acid]	1.31 ± 0.29 µM	3.78 ± 0.19 µM	–	–	–
O=C(O)/C=C/c1ccccc1 [P6, cinnamic acid]	0.35 ± 0.52 µM	1.02 ± 0.63 µM	362.55±1.20 μM TE/g	362.55 ± 1.20 μM TE/g	92.91%
COc1cc(-c2oc3cc(O)cc(O)c3c(=O)c2O[C@@H]2O[C@H](CO)[C@@H](O)[C@H](O)[C@H]2O)ccc1O [P3, isorhamnetin-3-O-β-D-glucopyranoside]	0.78 ± 0.75 µM	2.31 ± 0.87 µM	320.78±0.55 μM TE/g	–	82.21%
C[C@@H]1O[C@@H](OC[C@H]2O[C@@H](Oc3c(-c4ccc(O)c(O)c4)oc4cc(O)cc(O)c4c3=O)[C@H](O)[C@@H](O)[C@@H]2O)[C@H](O)[C@H](O)[C@H]1O [P1, rutin]	0.98 ± 0.67 µM	3.54 ± 0.21 µM	266.30±0.75 μM TE/g	–	68.25%
O=c1c(O[C@@H]2O[C@H](CO)[C@@H](O)[C@H](O)[C@H]2O)c(-c2ccc(O)c(O)c2)oc2cc(O)cc(O)c12 [P2, isoquercitrin]	0.57 ± 0.03 µM	1.54 ± 0.18 µM	346.28±0.29 μM TE/g	–	88.74%
